Values after ≈ are worked out from the molar mass of the structure shown.
Tests used:
JNK3 = JNK3 (Homo sapiens, UniProt P53779); experiment: JNK3 in vitro assay (c-jun phosphorylation, 33P incorporation, SPA); format: biochemical; details: recombinant pre-activated GST-JNK3, biotinylated GST-c-Jun, 2 μM 33γ-ATP
Experimental: The phosphorylation of c-jun by JNK2 or JNK3 may be followed by monitoring the incorporation of ^33P into c-jun following the protocol below. The inhibitory activity of the compounds according to formula I, in respect of c-jun phosphorylation through JNK, is determined by calculating the phosphorylation activity of a JNK in the presence or absence of the test compounds according to formula I.
JNK3 and/or -2 assays are performed in 96 well MTT plates: incubation of 0.5 μg of recombinant, pre-activated GST-JNK3 or GST-JNK2 with 1 μg of recombinant, biotinylated GST-c-Jun and 2 μM ^33γ-ATP (2 nCi/μl), in the presence or absence of compounds according to formula I and in a reaction volume of 50 μl containing 50 mM Tris-HCl, pH 8.0; 10 mM MgCl2; 1 mM Dithiothreitol, and 100 μM NaVO4. The incubation is performed for 120 min. at R.T and stopped upon addition of 200 μl of a solution containing 250 μg of Streptavidine-coated SPA beads (Amersham, Inc.)*, 5 mM EDTA, 0.1% Triton X-100 and 50 μM ATP, in phosphate saline buffer. After incubation for 60 minutes at RT, beads are sedimented by centrifugation at 1500×g for 5 minutes, resuspended in 200 μl of PBS containing 5 mM EDTA, 0.1% Triton X-100 and 50 μM ATP and the radioactivity measured in a scintillation β counter, following sedimentation of the beads as described above. By replacing biotinylated GST-c Jun with biotinylated GST-1ATF2 or biotinylated myelin basic protein, this assay may also be used to measure inhibition of pre-activated p38 and ERK MAP Kinases, respectively.

[1] = Solubility in water at pH 7.4; format: physicochemical; details: aqueous buffer, pH 7.4, r.t.
Experimental: The compounds have been assessed in respect of their solubility in water, at a pH of 7.4 at room temeprature. In general the solubility of compounds of formula (I) is in a range of at least 50 μg/mL solvent, more preferably of at least 100 μg/mL solvent.

JNK3, sequence (P53779 whole entry): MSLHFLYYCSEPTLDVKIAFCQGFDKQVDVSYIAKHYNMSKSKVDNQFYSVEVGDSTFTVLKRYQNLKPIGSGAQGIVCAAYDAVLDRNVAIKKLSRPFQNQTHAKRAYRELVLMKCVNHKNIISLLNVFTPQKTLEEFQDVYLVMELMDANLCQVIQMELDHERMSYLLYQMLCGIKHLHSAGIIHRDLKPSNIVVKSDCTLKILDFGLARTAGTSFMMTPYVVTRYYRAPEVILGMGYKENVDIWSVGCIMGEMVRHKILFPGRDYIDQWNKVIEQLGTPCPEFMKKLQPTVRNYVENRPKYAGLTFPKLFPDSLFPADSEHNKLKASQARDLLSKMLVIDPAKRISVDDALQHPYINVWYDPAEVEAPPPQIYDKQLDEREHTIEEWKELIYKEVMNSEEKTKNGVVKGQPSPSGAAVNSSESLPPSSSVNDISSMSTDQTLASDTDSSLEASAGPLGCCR

| IC50 (JNK3) | solubility [1] | Compound |
| --- | --- | --- |
| < 100 nM |  | N-({4-(hydrazinocarbonyl)-5-[(4-{3-[(trifluoro-methyl)sulfonyl]anilino}piperidin-1-yl)sulfonyl]-thien-2-yl}methyl)-3-methoxybenzamide [Example 6] |
| < 100 nM | 180 µg/mL (≈ 272 µM) | COc1cccc(C(=O)NCc2cc(C(=O)O)c(S(=O)(=O)N3CCC(Nc4cccc(S(=O)(=O)C(F)(F)F)c4)CC3)s2)c1 [Example 1, 5-{[(3-methoxybenzoyl)amino]methyl}-2-[(4-{3-[(trifluoromethyl) -sulfonyl]anilino}piperidin-1-yl)sulfonyl]thiophene-3-carboxylic acid] |
| < 100 nM |  | COc1cccc(C(=O)NCc2cc(C(=O)O)c(S(=O)(=O)N3CCC(NCc4ccc(C(F)(F)F)cc4)CC3)s2)c1 [Example 4, 5-{[(3-methoxybenzoyl)amino]methyl}-2-[(4-{[4-(trifluoromethyl)benzyl]amino}-1-piperidinyl)sulfonyl]-3-thiophenecarboxylic acid] |

— patent US20040077632A1, “Pharmaceutically active hydrophilic sulfonamide derivatives as inhibitors of protein junkinases” (priority 2000, published 2004)
